Experimental data as given in patent publication US6124351A, “Amino acid derivatives having a nitric oxide synthase inhibiting action” (priority 1994, dated 2000).
“Also recorded” adds a separate entry of the source. Structures can show the parent of a compound that is named as a salt. Where two headings read alike, the source gives them in different places.

Columns and labels:
N-cNOS = target: T1, N-cNOS (Rattus norvegicus, UniProt P29476); experiment: biochemical; conditions: for IC50: N-cNOS, rat cerebral cortex, 100 μM L-[3H] arginine, 37° C., 10 min, pH 7.4, mean ± standard error
T1 construct: a soluble cytosolic fraction of the finally obtained supernate was used as the crude enzyme sample of N-cNOS; from tissue; host or cells: cerebral cortex of normal untreated male SD rats, 100,000×g soluble cytosolic fraction
T1 sequence (P29476 whole entry): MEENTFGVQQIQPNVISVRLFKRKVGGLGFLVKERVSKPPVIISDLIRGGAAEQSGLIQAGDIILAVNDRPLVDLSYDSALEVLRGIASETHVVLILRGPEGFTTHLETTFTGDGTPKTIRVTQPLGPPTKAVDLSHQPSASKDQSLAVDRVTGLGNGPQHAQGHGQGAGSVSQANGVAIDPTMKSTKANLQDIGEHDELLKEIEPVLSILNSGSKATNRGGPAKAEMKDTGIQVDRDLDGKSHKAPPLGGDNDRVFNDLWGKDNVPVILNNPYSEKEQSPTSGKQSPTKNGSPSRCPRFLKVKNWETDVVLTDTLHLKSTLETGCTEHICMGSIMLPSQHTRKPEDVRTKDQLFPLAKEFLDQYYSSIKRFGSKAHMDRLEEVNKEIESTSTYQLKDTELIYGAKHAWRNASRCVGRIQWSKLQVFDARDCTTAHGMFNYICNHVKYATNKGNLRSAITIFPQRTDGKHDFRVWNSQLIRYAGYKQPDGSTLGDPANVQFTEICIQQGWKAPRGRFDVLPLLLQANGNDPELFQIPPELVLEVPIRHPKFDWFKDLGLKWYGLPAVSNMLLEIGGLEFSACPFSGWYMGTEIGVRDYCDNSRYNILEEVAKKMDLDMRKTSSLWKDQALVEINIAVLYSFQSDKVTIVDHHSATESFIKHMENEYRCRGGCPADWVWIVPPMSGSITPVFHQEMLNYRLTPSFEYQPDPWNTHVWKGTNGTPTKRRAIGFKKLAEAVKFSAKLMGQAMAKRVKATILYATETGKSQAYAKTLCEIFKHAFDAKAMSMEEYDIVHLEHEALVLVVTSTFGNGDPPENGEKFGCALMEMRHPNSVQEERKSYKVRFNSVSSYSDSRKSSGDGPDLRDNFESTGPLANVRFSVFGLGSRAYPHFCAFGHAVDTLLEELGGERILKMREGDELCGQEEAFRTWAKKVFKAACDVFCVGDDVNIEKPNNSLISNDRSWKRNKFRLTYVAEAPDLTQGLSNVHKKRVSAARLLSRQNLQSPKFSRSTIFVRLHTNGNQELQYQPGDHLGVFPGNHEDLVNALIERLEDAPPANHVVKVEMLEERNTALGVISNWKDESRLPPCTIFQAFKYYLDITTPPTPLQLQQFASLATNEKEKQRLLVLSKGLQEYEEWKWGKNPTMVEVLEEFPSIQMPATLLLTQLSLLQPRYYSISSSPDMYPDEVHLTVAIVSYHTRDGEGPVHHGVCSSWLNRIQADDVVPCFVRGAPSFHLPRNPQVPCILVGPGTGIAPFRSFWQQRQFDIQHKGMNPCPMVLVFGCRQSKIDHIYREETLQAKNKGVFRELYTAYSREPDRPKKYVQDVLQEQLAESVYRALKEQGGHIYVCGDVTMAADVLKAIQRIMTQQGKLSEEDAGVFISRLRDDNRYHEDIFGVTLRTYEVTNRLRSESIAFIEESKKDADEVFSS
Method: The crude enzyme sample of N-cNOS was prepared by the following procedure. Normal untreated male SD rats (body weight, 300-400 g) were decapitated; the whole brain was immediately removed from each animal and the cerebral cortex was separated on ice. Then, 5 volumes of 50 mM Tris-HCl containing 1 mM DTT (pH 7.4) was added and the mixture was homogenized for 3 min, followed by centrifugation at 1,000×g for 10 min. The resulting supernate was further centrifuged at 100,000×g for 60 min and a soluble cytosolic fraction of the finally obtained supernate was used as the crude enzyme sample of N-cNOS.

iNOS [1] = target: T2, iNOS (Rattus norvegicus, UniProt Q06518); experiment: Inhibition of iNOS, soluble fraction of lungs of LPS-treated rats; conversion of L-[3H] arginine to L-[3H] citrulline; assay type: biochemical
T2 construct: a soluble cytosolic fraction of the finally obtained supernate was used as the crude enzyme sample of iNOS; from tissue; host or cells: lungs of LPS-treated rats, 100,000×g soluble cytosolic fraction
T2 sequence (Q06518 whole entry): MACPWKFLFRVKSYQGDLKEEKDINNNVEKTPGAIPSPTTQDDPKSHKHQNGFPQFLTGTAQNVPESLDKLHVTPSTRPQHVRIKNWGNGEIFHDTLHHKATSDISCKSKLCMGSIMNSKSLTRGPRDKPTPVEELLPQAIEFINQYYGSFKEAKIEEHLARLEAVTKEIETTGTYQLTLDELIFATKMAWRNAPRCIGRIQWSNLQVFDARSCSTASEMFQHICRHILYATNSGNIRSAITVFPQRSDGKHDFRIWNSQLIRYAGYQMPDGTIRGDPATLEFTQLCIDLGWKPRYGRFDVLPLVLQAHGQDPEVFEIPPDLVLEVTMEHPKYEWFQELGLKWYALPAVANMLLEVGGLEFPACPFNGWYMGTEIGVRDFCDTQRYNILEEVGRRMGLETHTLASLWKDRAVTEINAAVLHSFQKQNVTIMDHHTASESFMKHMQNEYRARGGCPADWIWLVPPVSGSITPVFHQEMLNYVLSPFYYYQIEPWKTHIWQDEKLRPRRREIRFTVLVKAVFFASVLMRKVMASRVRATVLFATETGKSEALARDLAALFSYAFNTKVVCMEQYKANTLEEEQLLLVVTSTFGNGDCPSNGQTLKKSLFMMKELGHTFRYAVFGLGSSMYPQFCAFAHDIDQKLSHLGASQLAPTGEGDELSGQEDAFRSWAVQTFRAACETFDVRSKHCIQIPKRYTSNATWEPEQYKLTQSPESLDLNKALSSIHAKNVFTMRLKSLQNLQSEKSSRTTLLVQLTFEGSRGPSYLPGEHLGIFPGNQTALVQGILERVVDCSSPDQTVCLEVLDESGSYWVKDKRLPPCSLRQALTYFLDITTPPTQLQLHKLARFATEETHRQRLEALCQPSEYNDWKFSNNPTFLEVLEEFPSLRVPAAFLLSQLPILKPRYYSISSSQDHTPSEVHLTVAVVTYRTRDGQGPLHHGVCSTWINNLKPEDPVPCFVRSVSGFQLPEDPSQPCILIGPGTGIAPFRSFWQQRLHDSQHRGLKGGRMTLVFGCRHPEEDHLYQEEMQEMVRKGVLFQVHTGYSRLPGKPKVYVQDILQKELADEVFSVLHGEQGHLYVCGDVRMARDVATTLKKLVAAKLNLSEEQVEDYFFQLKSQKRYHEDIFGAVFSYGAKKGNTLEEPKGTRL
Method: (§1) Compounds of the invention were evaluated for their inhibitory effect against NOS isoforms in comparison with the well known NOS inhibitors. The following were used as crude enzyme fractions of the respective NOS isoforms: a soluble fraction of the rat cerebral cortex for N-cNOS and a homogenate of cow pulmonary arterial endothelium cell (CPAE) for E-cNOS, whereas for iNOS, rats were administered lipopolysaccharide (LPS, 10 mg/kg, i.p.) and lungs were removed 6 h later to prepare soluble fractions.
The crude enzyme sample of iNOS was prepared by the following procedure. Rats were administered intraperitoneally with LPS (10 mg/kg) and, 6 h later, perfused in a transcardiac manner with physiological saline containing 10 U/ml of heparin; thereafter, lungs were removed. Subsequently, 5 volumes of 50 mM Tris-HCl containing 1 mM DTT (pH 7.4) was added and the mixture was homogenized for 3 min, followed by centrifugation of the homogenate at 1,000×g for 10 min. The resulting supernate was centrifuged at 100,000×g for 60 min and a soluble cytosolic fraction of the finally obtained supernate was used as the crude enzyme sample of iNOS.
The method of measuring NOS activity was basically the same as already reported by the present inventors and consisted of determining quantitatively the conversion of a substrate L-[^3 H] arginine to a reaction product L-[^3 H] citrulline [Nagafuji et al., in Brain Edema IX (Ito et al. eds.) 60, pp. 285-288, 1994, Acta Neurochir., Springer-Verlag].
The reaction solution consisted of 100 μM L-[^3 H] arginine, a prepared NOS enzyme (6-20 μg/ml protein), 1.25 mM CaCl2, 1 mM EDTA, 10 μg/ml calmodulin, 1 mM NADPH, 100 μM tetrahydrobiopterine, 10 μM FAD, 10 μM FMN and 50 mM Tris-HCl (pH 7.4), to which one of the compounds of the invention or one of the control compounds was added.
(§2) The reaction was started by addition of L-[^3 H] arginine and following incubation at 37° C. for 10 min, the reaction was terminated by addition of 2 ml of 50 mM Tris-HCl (pH 5.5) containing 1 mM EDTA and placing the mixture on ice. The reaction solution was passed through a cation-exchange resin column (Dowex AG50WX-8, Na^+ form, 3.2 ml) to separate the reaction product L-[^3 H] citrulline from the unreacted residual substrate L-[^3 H] arginine. The elute was combined with another elute resulting from the passage of distilled water (3 ml) through the column and put into a mini vial for recovery of L-[^3 H] citrulline. Thereafter, 5 ml of a scintillation fluid was added and the contained radioactivity was measured with a liquid scintillation counter to determine the amount of L-[^3 H] citrulline. The protein concentration of each crude enzyme sample was determined with a micro-assay kit of Biorad Co.
(§3) All data in Table 4 are expressed by mean ± standard error, with the number of cases indicated within parentheses.

iNOS [2] = conditions: cited from earlier work
E-cNOS = target: T3, E-cNOS (Bos taurus, UniProt P29473); experiment: Inhibition of E-cNOS, homogenate of cow pulmonary arterial endothelium cell (CPAE); conversion of L-[3H] arginine to L-[3H] citrulline; assay type: biochemical
T3 construct: the mixture was homogenized for 3 min to yield the crude enzyme sample of E-cNOS; endogenous in cells; host or cells: CPAE (cow pulmonary arterial endothelium cells), whole homogenate
T3 sequence (P29473 2-1205): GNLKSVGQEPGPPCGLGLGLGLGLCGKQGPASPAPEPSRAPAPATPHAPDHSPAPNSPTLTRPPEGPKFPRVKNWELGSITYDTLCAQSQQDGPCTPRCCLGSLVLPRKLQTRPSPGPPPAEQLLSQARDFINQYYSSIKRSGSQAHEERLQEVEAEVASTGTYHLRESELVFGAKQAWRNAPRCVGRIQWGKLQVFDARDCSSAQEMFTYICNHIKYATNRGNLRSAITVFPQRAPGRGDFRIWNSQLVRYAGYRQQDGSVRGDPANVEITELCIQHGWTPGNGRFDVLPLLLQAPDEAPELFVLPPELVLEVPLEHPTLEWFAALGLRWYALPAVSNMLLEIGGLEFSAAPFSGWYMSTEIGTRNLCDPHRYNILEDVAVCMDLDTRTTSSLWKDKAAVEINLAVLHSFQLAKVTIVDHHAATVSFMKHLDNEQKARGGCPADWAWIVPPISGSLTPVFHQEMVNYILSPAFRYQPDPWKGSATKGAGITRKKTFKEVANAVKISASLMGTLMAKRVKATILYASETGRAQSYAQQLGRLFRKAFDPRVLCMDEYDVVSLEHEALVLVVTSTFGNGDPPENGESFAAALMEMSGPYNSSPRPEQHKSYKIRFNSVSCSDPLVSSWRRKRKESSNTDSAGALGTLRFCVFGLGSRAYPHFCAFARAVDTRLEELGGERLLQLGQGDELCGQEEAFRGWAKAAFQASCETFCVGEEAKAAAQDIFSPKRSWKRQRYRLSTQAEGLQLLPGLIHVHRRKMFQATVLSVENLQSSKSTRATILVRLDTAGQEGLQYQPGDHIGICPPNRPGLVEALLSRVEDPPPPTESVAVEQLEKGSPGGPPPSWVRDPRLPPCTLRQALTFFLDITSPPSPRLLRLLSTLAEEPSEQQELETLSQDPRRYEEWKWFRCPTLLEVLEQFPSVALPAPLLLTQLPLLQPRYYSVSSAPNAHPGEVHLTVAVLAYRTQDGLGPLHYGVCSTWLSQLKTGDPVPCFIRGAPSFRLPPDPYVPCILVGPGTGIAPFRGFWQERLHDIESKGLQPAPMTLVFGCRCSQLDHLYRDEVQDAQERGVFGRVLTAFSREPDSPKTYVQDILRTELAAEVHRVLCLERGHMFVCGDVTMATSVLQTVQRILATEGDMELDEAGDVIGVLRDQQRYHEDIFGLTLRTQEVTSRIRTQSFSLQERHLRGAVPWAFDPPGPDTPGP
Method: as §1
The crude enzyme sample of E-cNOS was prepared by the following procedure. A cow pulmonary arterial endothelium cell (CPAE) was cultured in a MEM medium containing 20% of FBS. Several days later, the cells were detached from the flask using a solution of 0.25% trypsin containing 1 mM EDTA and after addition of 0.1 M phosphate-buffered saline (PBS; pH 7.4) diluted with physiological saline, centrifugation was conducted at 1,000 rpm for 5 min. The supernate was then discarded and upon addition of a suitable amount of PBS, centrifugation was performed at 1,000 rpm for 5 min to wash the cells. The same procedure was repeated using 50 mM Tris-HCl containing 1 mM DTT (pH 7.4) to wash the cells. The precipitating cells were added an adequate amount of 50 mM Tris-HCl containing 1 mM DTT (pH 7.4) and the mixture was homogenized for 3 min to yield the crude enzyme sample of E-cNOS.
as §2, §3

[3] = index of selectivity, N-cNOS vs iNOS
[4] = read-out: IC50 value iNOS (the concentration necessary to inhibit 50% activity), iNOS, LPS rat lung, 100 μM L-[3H] arginine, 37° C., 10 min, pH 7.4, mean ± standard error
[5] = compared with existing NOS inhibitors, dihydrochloride
[6] = index of selectivity, N-cNOS vs E-cNOS
[7] = E-cNOS, CPAE homogenate, 100 μM L-[3H] arginine, 37° C., 10 min, pH 7.4, mean ± standard error
[8] = iNOS, LPS rat lung, 100 μM L-[3H] arginine, 37° C., 10 min, pH 7.4, mean ± standard error

Compound | Ratio of I50 values iNOS/N-cNOS (N-cNOS; [3]) | IC50 (N-cNOS) | Ratio of I50 values E-cNOS/N-cNOS (N-cNOS; [6]) | IC50 (E-cNOS; [7]) | IC50 (iNOS [1]; [8]) | further results
N=C(N)NN [AG, aminoguanidine, reference compound] | 1.3 | – | – | – | – | Ratio of I50 values E-cNOS/N-cNOS (N-cNOS): > 4.9; IC50 (iNOS [1]): 27.2 µM; selectivity for iNOS vs E-cNOS (in words) (iNOS [2]; Griffith et al. 1993): selectivity for iNOS in comparison with the E-cNOS inhibiting action; inhibiting potency and selectivity for iNOS (in words) (iNOS [2]; as a therapeutic against hypotension in sepsis): insufficient to warrant its use as a therapeutic effective against hypotension in sepsis
CCSC(=N)NCCC[C@H](N)C(=O)O [Example 2, δ-(S-ethylisothioureido)-L-norvaline] | – | – | – | – | – | N-cNOS inhibitory effect (in words) (N-cNOS; compared with existing NOS inhibitors): stronger N-cNOS inhibitory effect than the existing NOS inhibitors; also recorded: strong brain N-cNOS inhibitory effect; E-cNOS inhibitory effect (in words) (E-cNOS): weak E-cNOS inhibitory effect; IC50 (E-cNOS): 0.492 ± 0.315 µM; IC50 (iNOS [1]; [4]): 6.76 µM
Cl.Cl.N=C(NCCC[C@H](N)C(=O)O)SCCF [Example 4, δ-(S-(2-fluoroethyl)-isothioureido)-L-norvaline dihydrochloride] | 47.7 | 0.0105 ± 0.0008 µM | 124.9 | 1.31 µM | 0.501 µM | selectivity for N-cNOS or E-cNOS (in words) (N-cNOS; N-cNOS vs E-cNOS, compared with existing NOS inhibitors, dihydrochloride): more selective inhibitory effect on N-cNOS compared with the existing NOS inhibitors; also recorded: outstandingly high selective inhibitory effect on brain N-cNOS; N-cNOS inhibitory effect (in words) (N-cNOS; [5]): stronger N-cNOS inhibitory effect than the existing NOS inhibitors; also recorded: strong brain N-cNOS inhibitory effect; N-cNOS selective inhibitory effect (in words) (N-cNOS; over existing NOS inhibitors): by far superior N-cNOS selective inhibitory effect over the existing NOS inhibitors; E-cNOS inhibitory effect (in words) (E-cNOS): weak E-cNOS inhibitory effect
C=CCSC(=N)NCCC[C@H](N)C(=O)O.Cl.Cl [Example 6, δ-(S-(2-propenyl)isothioureido)-L-norvaline dihydrochloride] | 2.6 | 0.113 ± 0.006 µM | 10.4 | 1.18 µM | 0.298 µM | selectivity for N-cNOS or iNOS (in words) (N-cNOS; N-cNOS vs iNOS, compared with existing NOS inhibitors, dihydrochloride): extremely high selective inhibitory effect on iNOS; iNOS inhibitory effect (in words) (iNOS [1]; [5]): by far stronger iNOS inhibitory effect than the existing NOS inhibitors; also recorded: strong iNOS inhibitory effect; iNOS selective inhibitory effect (in words) (iNOS [1]; over existing NOS inhibitors): by far superior iNOS selective inhibitory effect over the existing NOS inhibitors
O=[N+]([O-])c1cccc2cn[nH]c12 [Example 7-NI, 7-nitroindazole, reference compound] | – | – | – | – | 6.93 µM | –
N[C@@H](CCCNC1=NCCS1)C(=O)O [Example 8, δ-(2,3-dehydrothiazolin-2-yl)amino-L-norvaline dihydrochloride] | 9.6 | 0.564 ± 0.284 µM | 5.9 | 3.32 µM | 5.41 µM | –
CSC(=N)NCCCC[C@H](N)C(=O)O.Cl.Cl [Example 10, ε-(S-methylisothioureido)-L-norleucine dihydrochloride] | 8.3 | 1.26 µM | 5.1 | 6.41 µM | 10.4 µM | –
CCCSC(=N)NCCC[C@H](N)C(=O)O [Example 12, δ-(S-(n-propyl)isothioureido)-L-norvaline] | 3.4 | 1.34 µM | 9.3 | 12.5 µM | 4.5 µM | –
C=CCNC(=N)NCCC[C@H](N)C(=O)O [L-ALA, N^G -allyl-L-arginine, reference compound] | 12.1 | – | 15.2 | – | 12 µM | –
N=C(NCCC[C@H](N)C(=O)O)NC1CC1 [L-CPA, N^G -cyclopropyl-L-arginine, reference compound] | – | – | – | 1.48 µM | – | IC50 (iNOS [1]; [4]): 7.15 µM
COC(=O)[C@@H](N)CCCNC(=N)N[N+](=O)[O-] [L-NAME, N^G -nitro-L-arginine methyl ester, reference compound] | – | – | – | – | – | IC50 (iNOS [1]; [4]): 13.5 µM
CC(=N)NCCC[C@H](N)C(=O)O [L-NIO, N^G -iminoethyl-ornithine, reference compound] | – | – | – | – | 0.458 ± 0.0858 µM | –
